Source: patent US9315544B2, “Method of treating eosinophilia by administering an immunomodulating peptide” (National Tsing Hua University, priority 2012, dated 2016)

Columns and labels:
IL-5 = experiment: Cytokine ELISA of lung protein extract (IL-5); format: in vivo, BALB/c mouse; conditions: mIT+eIN, eIN+mIT+eIN and eIN+mIT groups
Text: FIG. 4 illustrates experimental design. All groups except control group were immunized with mite crude extract allergen on days 1 and 8, then mite crude extract allergen intratracheally on day 15 in all mite treated group, BALB/c mouse were divided into six groups (1) control group (PBS), (2) mites delivered intratracheally (mIT, mite on day 15) alone, (3) CMP intranasal (eIN, CMP on days 1 to 22) alone, (4) preventive-treatment group (eIN+mIT, CMP on days 1 to 14, mite on day 15) (5) therapy-treatment group (mIT+eIN, mite on day 15, CMP on days 15 to 22), and (6) preventive- and therapeutic-treatment group (eIN+mIT+eIN, CMP on days 1 to 22, mite on day 15).
FIG. 9 illustrates inhibitory effect of CMP on lung protein extract. Lung protein extracts from different groups of mouse were assayed for the indicated cytokines. Data represent one of three independent experiments. Levels of CCL-11, IL-5, IL-13 and IL-17A/F levels in lung protein extracts from mouse from treatment groups were measured by Enzyme-linked immunosorbent assay (ELISA). Each result was expressed as the mean±S.D., n=4. **, P<0.01, ***, P<0.001. […]
Levels of cytokines from lung protein extract were measured by ELISA. […] The microplates were read at 450 nm with an ELISA reader (Thermo Labsystems, Waltham, Mass., USA). […]

human lung cancer H460 = experiment: Transwell migration assay, H460; format: cell-based; conditions: 12.5 μM CMP pretreatment 30 min, 18 hours
Protocol: FIG. 10 illustrates Tumor migration inhibition by CMP. A549, H460 and mouse colon cancer cells were incubated with CMP at 37° C. for 30 min before adding to the top chamber of transwell membranes in 24-well dishes at a density of 2×10^4 cells/well. Data represented the mean±S.E. of triplicate samples from a representative experiment. The experiment was repeated at least three times with similar results
Cancer cell inhibition by CMP was performed in a 24-well Transwell chamber consisting of a cell culture insert (6.4 mm diameter, 8-1 μm pore polyethylene tetraphtalate membrane, [Becton Dickinson]) set in each well of a 24-well companion plate (Becton Dickinson). Briefly, 3×10^4 cancer cells were suspended and pretreated with 5 and 12.5 μM CMP for 30 min in a total volume of 200 μL. Cell suspensions were inoculated into the upper chamber of an insert, 5% fetal bovine serum (FBS) in medium as a chemoattractant was added to the plate well in the bottom chamber, and incubated for 18 hours in a humidified incubator at 37° C. with 5% CO2. The non-migratory cells on the upper membrane surface were removed with a cotton swab, and the migratory cells attached to the lower membrane surface were fixed with 4% paraformaldehyde and stained with 0.2% crystal violet. The number of migrated cells was counted in four randomly selected high power fields under microscope. […]

NYRWRCKNQN (CMP) was tested, and the “IL-5 levels in lung protein extract compared with mIT group” value (IL-5) was “lower” and the “decrease of migration activity” value (human lung cancer H460) was 50%.
